Here are results for 8 molecules from publication PMC7317212 (Chemmedchem, 2020).

pIC50: −log10 of the molar value.

In one assay the target is T1, mGAT2 (Mus musculus, UniProt P31651).
T1 construct: expressed in transfected cells; host or cells: HEK293
T1 sequence (P31651 1-614): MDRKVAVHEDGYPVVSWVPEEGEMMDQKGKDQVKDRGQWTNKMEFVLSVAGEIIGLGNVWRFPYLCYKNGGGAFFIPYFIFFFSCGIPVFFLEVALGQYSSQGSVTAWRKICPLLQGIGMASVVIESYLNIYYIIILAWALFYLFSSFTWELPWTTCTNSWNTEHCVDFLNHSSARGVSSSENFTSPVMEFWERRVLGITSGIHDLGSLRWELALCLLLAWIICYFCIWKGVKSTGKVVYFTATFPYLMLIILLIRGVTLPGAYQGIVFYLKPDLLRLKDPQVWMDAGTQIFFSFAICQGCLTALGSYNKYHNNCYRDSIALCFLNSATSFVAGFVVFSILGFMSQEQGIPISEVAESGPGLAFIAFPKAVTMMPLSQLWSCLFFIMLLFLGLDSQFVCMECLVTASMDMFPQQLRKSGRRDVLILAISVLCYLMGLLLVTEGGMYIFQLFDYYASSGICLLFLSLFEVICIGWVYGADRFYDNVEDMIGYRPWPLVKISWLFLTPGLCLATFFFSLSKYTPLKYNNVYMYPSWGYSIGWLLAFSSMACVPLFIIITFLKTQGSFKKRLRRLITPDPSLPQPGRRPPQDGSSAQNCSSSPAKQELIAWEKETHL
Kind of assay: [^3H]GABA uptake assay, HEK293 cells expressing mGAT2. In kind it is cell-based. The conditions noted are these: HEK293; in presence of 100 μM compound. How it is done:
(§1) For compounds with pIC50 ([^3H]GABA uptake assay) or pK i (MS Binding Assays) values close to or above 5.0, these experiments were repeated twice and SEM have been calculated.
(§2) [^3H]GABA uptake assays: The [^3H]GABA uptake assays were performed according to Kragler et al.33 Cells were grown in 150 cm^2 plates to a confluence of 70–90 % up to passage 25. After detachment the cells were centrifuged 5 min at 500×g, washed for three times in phosphate buffered saline and, finally, resuspended in Krebs buffer (2.5 mM CaCl2, 1.2 mM MgSO4, 1.2 mM KH2PO4, 4.7 mM KCl, 11 mM glucose, 25 mM Tris, 119 mM NaCl, pH 7.2). The uptake assays were performed with aliquots of the resulting cell suspension (about 100000–200000 cells per well) in a total volume of 250 μl in 96 well 2.2 mL deep well plates. The cells were equilibrated for 25 min in Krebs buffer in the presence of the test compound at 37 °C in a gently shaking water bath. […] After addition of 25 μl of a solution containing [^3H]GABA (2.22 TBq/mmol, ARC, St Louis, MO, USA) and unlabeled GABA in Krebs (final concentration 8 nM [^3H]GABA and 32 nM unlabeled GABA for mGAT1, mGAT3, mGAT4 and 20 nM [^3H]GABA and 20 nM unlabeled GABA for mGAT2) the cells were incubated for further 4 min (mGAT1, mGAT3, mGAT4) or 10 minutes (mGAT2), respectively. The incubation was stopped by filtration through Sartorius MGC micro glass fiber filters pre‐soaked for 1 h in 0.9 % NaCl by means of a Brandell MWXR‐96TI cell harvester (Brandell, Gaithersburg, MD, USA) under reduced pressure. The filters were rinsed two times with cold 0.9 % NaCl and subsequently transferred to 96 well sample plates (Perkin Elmer LAS, Boston, MA, USA). After addition of 200 μl Rotiszint Eco Plus (Roth, Karlsruhe, Germany) per well the radioactivity was determined in a microbeta liquid scintillation counter (Perkin Elmer LAS, Boston, MA, USA). Non‐specific uptake was determined in presence of 10 mM GABA for mGAT1, mGAT3 and mGAT4 or 100 mM GABA for mGAT2, respectively. The results are expressed as means±S.E.M. of at least three separate experiments, each carried out in triplicate.

The next assay deals with T2, mGAT4 (Mus musculus, UniProt P31650).
T2 construct: expressed in transfected cells; host or cells: HEK293
T2 sequence (P31650 1-627): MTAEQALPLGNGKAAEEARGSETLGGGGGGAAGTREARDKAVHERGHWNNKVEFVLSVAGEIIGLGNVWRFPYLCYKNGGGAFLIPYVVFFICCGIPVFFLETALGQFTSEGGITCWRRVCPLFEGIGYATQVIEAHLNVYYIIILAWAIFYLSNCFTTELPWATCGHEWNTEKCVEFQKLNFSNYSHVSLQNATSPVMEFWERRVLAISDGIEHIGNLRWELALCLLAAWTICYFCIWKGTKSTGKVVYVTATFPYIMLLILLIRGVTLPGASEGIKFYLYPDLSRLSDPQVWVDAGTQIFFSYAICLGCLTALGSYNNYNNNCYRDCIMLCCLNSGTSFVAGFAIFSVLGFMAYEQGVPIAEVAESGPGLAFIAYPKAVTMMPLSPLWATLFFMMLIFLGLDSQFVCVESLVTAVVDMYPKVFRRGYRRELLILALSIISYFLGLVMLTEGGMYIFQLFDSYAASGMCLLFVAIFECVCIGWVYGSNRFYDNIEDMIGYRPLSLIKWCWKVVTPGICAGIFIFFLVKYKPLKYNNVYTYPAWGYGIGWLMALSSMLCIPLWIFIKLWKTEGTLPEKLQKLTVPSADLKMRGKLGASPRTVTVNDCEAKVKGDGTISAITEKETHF
Kind of assay: [^3H]GABA uptake assay, HEK293 cells expressing mGAT4. The conditions noted are these: for remaining activity at 100 µM: HEK293, in presence of 100 μM compound. It counts as cell-based. How it is done: as §1, §2

Assay [1] addresses T3, mGAT1 (Mus musculus, UniProt P31648).
T3 construct: expressed in transfected cells; host or cells: HEK293
Kind of assay: MS Binding Assay with NO711 as native MS marker. The conditions noted are these: for remaining activity at 100 µM: in presence of 100 μM compound, read-out: remaining specific NO711 binding (mGAT1). How it is done: as §1
MS Binding Assays: The MS Binding Assays were performed with mGAT1 membrane preparations obtained from a stably mGAT1 expressing HEK293 cell line and NO711 as unlabeled marker in competitive binding experiments as previously described in detail.34 In short, test compounds were investigated at 7 concentrations in presence of 10 nM NO 711 in competition experiments. Non specific binding was defined as binding remaining in the presence of 100 mM GABA. Incubation was terminated by transfer of 200 μL per well onto a 96‐well filter plate (Acroprep, glass fibre, 1.0 μm, 350 μL, Pall, Dreieich, Germany) with a 12 channel pipette. After rapid vacuum‐filtration the filters were washed with ice cold 0.9 % NaCl (5×150 μL) and dried at 50 °C for 60 min. Afterwards, the filters were eluted with 100 μL methanol containing [^2H10]NO711 (1.4 nM) as internal standard per well into a deep‐well plate by application of vacuum. This step was repeated twice resulting in a total elution volume of 300 μL. Finally, a volume of 130 μL ammonium formate buffer (10 mM, pH 7.0) was added per well and the generated samples analyzed by LC‐ESI‐MS/MS using a API 3200 as described in detail previously.40

The target of another assay is T4, mGAT3 (Mus musculus, UniProt P31649).
T4 construct: expressed in transfected cells; host or cells: HEK293
T4 sequence (P31649 1-602): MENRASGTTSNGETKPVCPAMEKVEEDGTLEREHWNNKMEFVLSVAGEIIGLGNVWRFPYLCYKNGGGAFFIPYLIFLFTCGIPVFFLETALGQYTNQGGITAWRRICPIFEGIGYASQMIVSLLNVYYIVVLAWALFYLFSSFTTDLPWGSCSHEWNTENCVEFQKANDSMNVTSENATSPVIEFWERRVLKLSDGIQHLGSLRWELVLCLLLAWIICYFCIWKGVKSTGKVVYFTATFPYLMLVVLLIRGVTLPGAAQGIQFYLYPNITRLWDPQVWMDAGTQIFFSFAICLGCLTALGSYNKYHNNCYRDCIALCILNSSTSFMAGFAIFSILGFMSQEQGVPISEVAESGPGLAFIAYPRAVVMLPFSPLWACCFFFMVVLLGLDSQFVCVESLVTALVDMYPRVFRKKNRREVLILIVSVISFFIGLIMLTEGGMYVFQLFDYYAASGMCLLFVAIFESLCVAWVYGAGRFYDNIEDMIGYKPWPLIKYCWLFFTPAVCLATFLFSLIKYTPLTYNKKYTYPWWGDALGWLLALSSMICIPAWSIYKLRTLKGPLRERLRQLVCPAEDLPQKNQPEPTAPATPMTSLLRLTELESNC
Nature of the assay: [^3H]GABA uptake assay, HEK293 cells expressing mGAT3. It counts as cell-based. The conditions noted are these: for remaining activity at 100 µM: HEK293, in presence of 100 μM compound. How it is done: as §1, §2

The target in assay [2] is T3, mGAT1. Kind of assay: [^3H]GABA uptake assay, HEK293 cells expressing mGAT1. It counts as cell-based. The conditions noted are these: HEK293; in presence of 100 μM compound. How it is done: as §1, §2

On to `CCOC(=O)C1CCCN(CCOC(c2ccc(CNc3ccc(C(=O)O)cc3)cc2)(c2ccc(OC)cc2)c2ccc(OC)cc2)C1` (racemic) [12 t, rac‐ 4‐{[4‐({2‐[3‐(Ethoxycarbonyl)piperidin‐1‐yl]ethoxy}bis{4‐methoxy‐phenyl}methyl)benzyl]amino}benzoic acid], for which the remaining activity at 100 µM stood at 73.5% on mGAT2; 63.9% on mGAT4; 102% on mGAT1 [1]; 49.7% at mGAT3; 52.3% at mGAT1 [2].
As for `CCOC(=O)C1CCCN(CCOC(c2ccc(CNC3(C(=O)OCC)CC3)cc2)(c2ccc(OC)cc2)c2ccc(OC)cc2)C1` (racemic) [12 p, rac‐ Ethyl 1‐(2‐{[4‐({[1‐(ethoxycarbonyl)cyclopropyl]amino}methyl)‐phenyl]bis[4‐methoxyphenyl]methoxy}ethyl)piperidine‐3‐carboxylate], the remaining activity at 100 µM came out at 103% at mGAT2; 66.1% on mGAT4; 95.8% at mGAT1 [1]; 58.8% at mGAT3; 75.5% at mGAT1 [2].
The like results for `COc1ccc(C(OCCN2CCCC(C(=O)O)C2)(C(=O)O)c2ccc(OC)cc2)cc1` (racemic) [5 k, rac ‐1‐{2‐[Carboxybis(4‐methoxyphenyl)methoxy]ethyl}piperidine‐3‐carboxylic acid] were, in that order, 101%, 96.5%, 96.9%, 94% and 100%.
On the same counts, the results for `CCOC(=O)C1CCCN(CCCC(O)(c2ccc(OC)cc2)c2ccc(OC)cc2)C1` (racemic) [12 l, rac ‐Ethyl 1‐[4‐hydroxy‐4,4‐bis(4‐methoxyphenyl)butyl]piperidine‐3‐carboxylate] are 70.4%, 73.8%, 104%, 65% and 79.3%.
The like results for `COCc1ccc(C(OCCN2CCCC(C(=O)O)C2)(c2ccc(COC)cc2)c2ccc(COC)cc2)cc1` (racemic) [5 i, rac‐ 1‐(2‐{Tris[4‐(methoxymethyl)phenyl]methoxy}ethyl)piperidine‐3‐carboxylic acid] were, in that order, 72.6%, 76.1%, 92.7%, 68.3% and 90.7%.
As to `COc1ccc(C(OCCN2CCCC(C(=O)O)C2)(c2ccc(C#N)cc2)c2ccc(OC)cc2)cc1` (racemic) [5 g, rac ‐1‐{2‐[(4‐Cyanophenyl)bis(4‐methoxyphenyl)methoxy]ethyl}piperidine‐3‐carboxylic acid], the remaining activity at 100 µM was determined as 82.9% on mGAT2 and 74.8% on mGAT1 [2]. In addition, the pIC50 against mGAT4 ([^3H]GABA uptake, pIC50±SEM) was 5.07; at mGAT3 ([^3H]GABA uptake, pIC50±SEM), 4.31. For the same molecule, at mGAT1 [1] (MS Binding Assay, NO711 marker, pKi±SEM, read-out: pK i mGAT1 (converted)), the Ki is 39.8 µM.
Regarding `CCOC(=O)C1CCCN(CCOC(c2ccc(OC)cc2)(c2ccc(OC)cc2)c2ccc(S(=O)(=O)N(C)C)cc2)C1` (racemic) [12 c, rac‐ Ethyl 1‐(2‐{[4‐(N,N‐dimethylsulfamoyl)phenyl]bis[4‐methoxyphenyl]‐methoxy}ethyl)piperidine‐3‐carboxylate], the remaining activity at 100 µM turned out to be 73.2% at mGAT2; 94.3% at mGAT4; 93.8% on mGAT1 [1]; 95.9% on mGAT3; 75.7% at mGAT1 [2].
In the case of `COc1ccc(C(OCCN2CCCC(C(=O)O)C2)(c2ccc(CNCCC(=O)O)cc2)c2ccc(OC)cc2)cc1` (racemic) [5 o, rac‐ 1‐{2‐[(4‐{[(2‐Carboxyethyl)amino]methyl}phenyl)bis(4‐methoxy‐phenyl)methoxy]ethyl}piperidine‐3‐carboxylic acid], the remaining activity at 100 µM at mGAT2 came out at 69.5%; at mGAT4, 56.3%; at mGAT1 [1], 82.3%; on mGAT3 it was 89.1%; at mGAT1 [2], 94.4%.

The pIC50 is −log10 of the IC50, conventionally taken in molar units. The low end stands for a large IC50, the high end for a small IC50.
